How the values were obtained:
Assay in all cases: KINOMEscan binding assay
Conditions in all cases: read-out: % Ctrl @ 10000 nM
[1] = biological target: ABL1 (H396P) non-phosphorylated (Homo sapiens, UniProt P00519, H396P)
[2] = biological target: ABL1 (M351T) phosphorylated (Homo sapiens, UniProt P00519, M351T)
[3] = biological target: ABL1 (Q252H) phosphorylated (Homo sapiens, UniProt P00519, Q252H)
[4] = biological target: ABL1 (T315I) non-phosphorylated (Homo sapiens, UniProt P00519, T315I)
AKT3 = AKT3 (Homo sapiens, UniProt Q9Y243)
AMPK-alpha1 = AMPK-alpha1 (Homo sapiens, UniProt Q13131)
ASK1 = ASK1 (Homo sapiens, UniProt Q99683)
BLK = BLK (Homo sapiens, UniProt P51451)
BMPR1B = BMPR1B (Homo sapiens, UniProt O00238)
BRAF (V600E) = BRAF (V600E) (Homo sapiens, UniProt P15056, V600E)
DCAMKL2 = DCAMKL2 (Homo sapiens, UniProt Q8N568)
DDR1 = DDR1 (Homo sapiens, UniProt Q08345)
DDR1, sequence (Q08345 19-913): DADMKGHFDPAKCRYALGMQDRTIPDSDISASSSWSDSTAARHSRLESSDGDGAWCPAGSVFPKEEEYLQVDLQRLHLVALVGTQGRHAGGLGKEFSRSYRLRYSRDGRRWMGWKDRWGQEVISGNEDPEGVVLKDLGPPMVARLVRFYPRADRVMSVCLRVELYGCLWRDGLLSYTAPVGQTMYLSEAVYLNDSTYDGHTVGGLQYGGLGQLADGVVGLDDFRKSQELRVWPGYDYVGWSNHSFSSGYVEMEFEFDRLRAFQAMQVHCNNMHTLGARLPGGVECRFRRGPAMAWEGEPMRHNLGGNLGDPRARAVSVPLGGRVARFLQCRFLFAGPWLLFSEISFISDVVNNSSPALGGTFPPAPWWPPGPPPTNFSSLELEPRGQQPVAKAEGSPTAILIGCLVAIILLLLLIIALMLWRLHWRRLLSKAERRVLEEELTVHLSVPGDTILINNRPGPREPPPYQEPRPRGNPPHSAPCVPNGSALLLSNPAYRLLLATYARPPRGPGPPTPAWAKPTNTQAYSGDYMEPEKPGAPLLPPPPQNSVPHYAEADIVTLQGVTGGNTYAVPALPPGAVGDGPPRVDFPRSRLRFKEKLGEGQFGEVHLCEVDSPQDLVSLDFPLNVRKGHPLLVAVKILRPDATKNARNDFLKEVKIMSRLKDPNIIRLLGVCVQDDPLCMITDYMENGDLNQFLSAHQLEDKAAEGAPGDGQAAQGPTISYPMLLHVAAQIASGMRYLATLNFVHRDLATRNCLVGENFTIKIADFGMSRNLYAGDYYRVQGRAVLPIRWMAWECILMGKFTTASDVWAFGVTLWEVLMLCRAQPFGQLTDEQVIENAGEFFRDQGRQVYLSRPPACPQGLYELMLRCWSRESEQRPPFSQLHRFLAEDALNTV

EPHA8 = EPHA8 (Homo sapiens, UniProt P29322)
EPHB4 = EPHB4 (Homo sapiens, UniProt P54760)
ERBB4 = ERBB4 (Homo sapiens, UniProt Q15303)
FLT3-autoinhibited = FLT3-autoinhibited (Homo sapiens, UniProt P36888)
GRK1 = GRK1 (Homo sapiens, UniProt Q15835)
GSK3B = GSK3B (Homo sapiens, UniProt P49841)
IKK-epsilon = IKK-epsilon (Homo sapiens, UniProt Q14164)
IRAK4 = IRAK4 (Homo sapiens, UniProt Q9NWZ3)
KIT = KIT (Homo sapiens, UniProt P10721)
KIT (D816V) = KIT (D816V) (Homo sapiens, UniProt P10721, D816V)
LTK = biological target: T1, LTK (Homo sapiens, UniProt P29376)
T1 construct: T7 phage fusion (most assays) or DNA label after HEK293 expression; purchased DiscoveRx (KINOMEscan, LeadHunter Discovery services); host or cells: T7 phage in E. coli (BL21-derived) or HEK293
T1 sequence (P29376 17-864): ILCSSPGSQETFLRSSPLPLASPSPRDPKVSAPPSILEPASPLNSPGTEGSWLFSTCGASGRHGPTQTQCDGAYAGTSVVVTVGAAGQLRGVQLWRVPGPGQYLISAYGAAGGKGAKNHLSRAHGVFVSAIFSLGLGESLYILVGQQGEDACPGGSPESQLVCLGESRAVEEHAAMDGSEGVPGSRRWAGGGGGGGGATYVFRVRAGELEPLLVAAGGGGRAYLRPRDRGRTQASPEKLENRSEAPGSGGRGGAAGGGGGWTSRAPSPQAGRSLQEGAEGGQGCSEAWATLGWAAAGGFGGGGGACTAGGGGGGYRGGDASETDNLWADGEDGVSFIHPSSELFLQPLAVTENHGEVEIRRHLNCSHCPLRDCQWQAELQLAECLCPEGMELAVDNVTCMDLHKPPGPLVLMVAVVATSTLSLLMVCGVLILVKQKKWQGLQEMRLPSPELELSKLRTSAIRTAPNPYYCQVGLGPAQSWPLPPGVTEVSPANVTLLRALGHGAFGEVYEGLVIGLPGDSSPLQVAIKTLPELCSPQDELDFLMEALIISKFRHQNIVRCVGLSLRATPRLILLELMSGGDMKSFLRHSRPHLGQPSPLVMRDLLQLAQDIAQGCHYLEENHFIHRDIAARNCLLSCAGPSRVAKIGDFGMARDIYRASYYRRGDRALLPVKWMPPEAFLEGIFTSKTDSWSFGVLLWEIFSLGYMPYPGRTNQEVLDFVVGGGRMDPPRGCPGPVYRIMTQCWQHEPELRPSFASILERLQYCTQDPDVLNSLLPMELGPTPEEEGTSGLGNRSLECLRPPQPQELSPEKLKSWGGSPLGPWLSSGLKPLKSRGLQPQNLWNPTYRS

NIM1 = NIM1 (Homo sapiens, UniProt Q8IY84)
p38-alpha = p38-alpha (Homo sapiens, UniProt Q16539)
PFCDPK1 P. falciparum = PFCDPK1 P. falciparum (Plasmodium falciparum, UniProt P62344)
PFPK5 P. falciparum = PFPK5 P. falciparum (Plasmodium falciparum, UniProt P61075)
PHKG1 = PHKG1 (Homo sapiens, UniProt Q16816)
PIK3CA (E542K) = PIK3CA (E542K) (Homo sapiens, UniProt P42336, E542K)
PIM2 = PIM2 (Homo sapiens, UniProt Q9P1W9)
PIM2, sequence (Q9P1W9 whole entry): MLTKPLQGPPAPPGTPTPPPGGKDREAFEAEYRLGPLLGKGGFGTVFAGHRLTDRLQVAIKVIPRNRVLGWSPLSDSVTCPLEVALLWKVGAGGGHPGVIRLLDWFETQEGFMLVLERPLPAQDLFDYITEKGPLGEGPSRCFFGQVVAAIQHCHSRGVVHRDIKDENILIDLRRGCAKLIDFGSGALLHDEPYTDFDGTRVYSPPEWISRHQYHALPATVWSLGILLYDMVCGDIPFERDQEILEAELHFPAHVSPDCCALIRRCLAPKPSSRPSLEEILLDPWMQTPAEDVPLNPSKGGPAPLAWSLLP

PIP5K1C = PIP5K1C (Homo sapiens, UniProt O60331)
[5] = biological target: RPS6KA4 Kin.Dom.2-C-terminal (Homo sapiens, UniProt O75676)
SBK1 = SBK1 (Homo sapiens, UniProt Q52WX2)
SBK1, sequence (Q52WX2 whole entry): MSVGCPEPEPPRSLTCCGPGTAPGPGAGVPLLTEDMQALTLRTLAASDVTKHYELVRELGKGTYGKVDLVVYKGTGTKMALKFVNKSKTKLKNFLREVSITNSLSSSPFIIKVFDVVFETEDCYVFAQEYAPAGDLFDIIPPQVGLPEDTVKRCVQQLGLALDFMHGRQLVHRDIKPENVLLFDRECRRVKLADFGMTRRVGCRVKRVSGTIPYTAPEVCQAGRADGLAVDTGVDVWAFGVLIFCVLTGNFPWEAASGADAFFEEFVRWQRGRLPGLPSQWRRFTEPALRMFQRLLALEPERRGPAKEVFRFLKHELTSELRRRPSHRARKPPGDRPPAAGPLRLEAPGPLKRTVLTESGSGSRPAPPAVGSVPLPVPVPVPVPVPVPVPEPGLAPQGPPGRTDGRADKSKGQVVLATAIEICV

SLK = SLK (Homo sapiens, UniProt Q9H2G2)
TAK1 = TAK1 (Homo sapiens, UniProt O43318)
TEC = TEC (Homo sapiens, UniProt P42680)
TEC, sequence (P42680 whole entry): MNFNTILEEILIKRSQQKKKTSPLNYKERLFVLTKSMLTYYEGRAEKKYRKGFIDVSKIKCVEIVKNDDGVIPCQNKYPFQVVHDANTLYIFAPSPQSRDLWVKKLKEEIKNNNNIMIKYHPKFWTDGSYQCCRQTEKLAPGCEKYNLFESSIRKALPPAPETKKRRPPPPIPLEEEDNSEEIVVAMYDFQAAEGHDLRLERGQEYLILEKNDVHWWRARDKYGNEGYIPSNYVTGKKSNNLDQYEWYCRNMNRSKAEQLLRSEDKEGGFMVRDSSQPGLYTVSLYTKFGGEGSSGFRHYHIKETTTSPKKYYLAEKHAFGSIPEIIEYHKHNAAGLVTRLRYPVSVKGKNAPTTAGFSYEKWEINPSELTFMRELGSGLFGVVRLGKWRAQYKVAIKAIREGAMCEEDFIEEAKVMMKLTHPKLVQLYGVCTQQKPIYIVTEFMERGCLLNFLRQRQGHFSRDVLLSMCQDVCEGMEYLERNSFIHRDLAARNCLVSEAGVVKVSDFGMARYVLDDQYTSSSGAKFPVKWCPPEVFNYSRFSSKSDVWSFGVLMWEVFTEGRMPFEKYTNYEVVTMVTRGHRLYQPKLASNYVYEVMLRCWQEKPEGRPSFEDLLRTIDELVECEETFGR

TESK1 = TESK1 (Homo sapiens, UniProt Q15569)
TSSK1B = TSSK1B (Homo sapiens, UniProt Q9BXA7)
TSSK1B, sequence (Q9BXA7 whole entry): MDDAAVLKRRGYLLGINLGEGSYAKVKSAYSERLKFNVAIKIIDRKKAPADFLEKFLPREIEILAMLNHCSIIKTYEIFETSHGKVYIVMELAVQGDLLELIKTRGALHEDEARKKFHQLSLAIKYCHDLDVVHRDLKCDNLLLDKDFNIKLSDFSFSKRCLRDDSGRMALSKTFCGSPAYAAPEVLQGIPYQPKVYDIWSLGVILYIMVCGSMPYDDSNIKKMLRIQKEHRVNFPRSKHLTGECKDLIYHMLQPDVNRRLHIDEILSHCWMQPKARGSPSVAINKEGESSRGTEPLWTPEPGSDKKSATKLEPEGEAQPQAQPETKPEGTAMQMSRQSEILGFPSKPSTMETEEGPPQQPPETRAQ

VEGFR2 = biological target: T2, VEGFR2 (Homo sapiens, UniProt P35968)
T2 construct: purchased DiscoveRx (KINOMEscan, LeadHunter Discovery services)
T2 sequence (P35968 20-1356): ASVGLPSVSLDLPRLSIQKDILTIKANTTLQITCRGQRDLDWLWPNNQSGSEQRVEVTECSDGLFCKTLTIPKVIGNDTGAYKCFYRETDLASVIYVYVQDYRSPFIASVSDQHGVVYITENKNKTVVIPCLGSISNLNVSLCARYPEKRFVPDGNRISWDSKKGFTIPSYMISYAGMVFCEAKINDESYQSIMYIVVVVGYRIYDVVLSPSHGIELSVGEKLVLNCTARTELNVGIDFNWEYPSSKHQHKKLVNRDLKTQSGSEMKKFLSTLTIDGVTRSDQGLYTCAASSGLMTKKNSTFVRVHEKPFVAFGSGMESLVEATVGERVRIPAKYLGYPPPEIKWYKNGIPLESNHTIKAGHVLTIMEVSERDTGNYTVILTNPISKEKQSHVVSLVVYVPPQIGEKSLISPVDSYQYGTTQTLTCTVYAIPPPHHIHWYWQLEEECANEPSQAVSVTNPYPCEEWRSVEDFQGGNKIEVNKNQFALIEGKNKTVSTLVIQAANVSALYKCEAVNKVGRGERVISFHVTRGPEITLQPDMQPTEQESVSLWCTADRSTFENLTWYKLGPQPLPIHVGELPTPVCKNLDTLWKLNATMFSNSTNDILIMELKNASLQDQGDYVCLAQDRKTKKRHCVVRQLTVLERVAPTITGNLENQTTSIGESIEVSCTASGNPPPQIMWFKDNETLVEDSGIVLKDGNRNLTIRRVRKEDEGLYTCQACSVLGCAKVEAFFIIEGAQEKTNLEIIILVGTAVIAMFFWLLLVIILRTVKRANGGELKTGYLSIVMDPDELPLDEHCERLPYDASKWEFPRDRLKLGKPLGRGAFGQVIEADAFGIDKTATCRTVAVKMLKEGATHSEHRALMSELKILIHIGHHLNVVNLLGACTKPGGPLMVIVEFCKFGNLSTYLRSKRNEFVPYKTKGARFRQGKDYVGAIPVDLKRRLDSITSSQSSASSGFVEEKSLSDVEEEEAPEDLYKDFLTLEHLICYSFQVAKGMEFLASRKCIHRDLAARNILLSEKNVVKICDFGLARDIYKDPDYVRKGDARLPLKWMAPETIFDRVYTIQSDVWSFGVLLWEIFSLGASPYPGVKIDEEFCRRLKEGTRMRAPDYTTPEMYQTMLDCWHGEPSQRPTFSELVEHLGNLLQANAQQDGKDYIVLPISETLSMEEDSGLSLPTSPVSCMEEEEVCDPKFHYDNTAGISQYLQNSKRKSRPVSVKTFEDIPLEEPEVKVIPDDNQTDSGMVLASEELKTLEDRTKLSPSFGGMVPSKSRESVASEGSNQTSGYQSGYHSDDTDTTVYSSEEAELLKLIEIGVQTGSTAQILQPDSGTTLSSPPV

WEE2 = biological target: T3, WEE2 (Homo sapiens, UniProt P0C1S8)
T3 construct: purchased DiscoveRx (KINOMEscan, LeadHunter Discovery services)

YSK1 = biological target: T4, YSK1 (Homo sapiens, UniProt O00506)
T4 construct: purchased DiscoveRx (KINOMEscan, LeadHunter Discovery services)

## Nc1ncc(-c2nc3ccccc3o2)c(-c2ccncc2)n1 [Comparative Compound 324, 5-(1,3-benzoxazol-2-yl)-4-(pyridine-4-yl)pyrimidin-2-amine]
[1]
  remaining binding at 10 µM: 66%
[2]
  remaining binding at 10 µM: 79%
[3]
  remaining binding at 10 µM: 100%
[4]
  remaining binding at 10 µM: 96%
AKT3
  remaining binding at 10 µM: 100%
AMPK-alpha1
  remaining binding at 10 µM: 98%
ASK1
  remaining binding at 10 µM: 96%
BLK
  remaining binding at 10 µM: 80%
BMPR1B
  remaining binding at 10 µM: 80%
BRAF (V600E)
  remaining binding at 10 µM: 59%
DCAMKL2
  remaining binding at 10 µM: 99%
DDR1
  remaining binding at 10 µM: 94%
EPHA8
  remaining binding at 10 µM: 94%
EPHB4
  remaining binding at 10 µM: 100%
ERBB4
  remaining binding at 10 µM: 100%
FLT3-autoinhibited
  remaining binding at 10 µM: 95%
GRK1
  remaining binding at 10 µM: 68%
GSK3B
  remaining binding at 10 µM: 95%
IKK-epsilon
  remaining binding at 10 µM: 82%
IRAK4
  remaining binding at 10 µM: 100%
KIT
  remaining binding at 10 µM: 91%
KIT (D816V)
  remaining binding at 10 µM: 91%
LTK
  remaining binding at 10 µM: 74%
NIM1
  remaining binding at 10 µM: 96%
p38-alpha
  remaining binding at 10 µM: 33%
PFCDPK1 P. falciparum
  remaining binding at 10 µM: 78%
PFPK5 P. falciparum
  remaining binding at 10 µM: 100%
PHKG1
  remaining binding at 10 µM: 100%
PIK3CA (E542K)
  remaining binding at 10 µM: 98%
PIM2
  remaining binding at 10 µM: 98%
PIP5K1C
  remaining binding at 10 µM: 75%
[5]
  remaining binding at 10 µM: 100%
SBK1
  remaining binding at 10 µM: 83%
SLK
  remaining binding at 10 µM: 63%
TAK1
  remaining binding at 10 µM: 81%
TEC
  remaining binding at 10 µM: 94%
TESK1
  remaining binding at 10 µM: 88%
TSSK1B
  remaining binding at 10 µM: 100%
VEGFR2
  remaining binding at 10 µM: 94%
WEE2
  remaining binding at 10 µM: 100%
YSK1
  remaining binding at 10 µM: 84%

## CNc1c(C(N)=O)c2ccccn2c1C(=O)c1ccc(F)cc1 [Compound A, 2-methyl-amino-3-[(4-fluorophenyl)carbonyl]indolizine-1-carboxamide]
[1]
  remaining binding at 10 µM: 14%
[2]
  remaining binding at 10 µM: 49%
[3]
  remaining binding at 10 µM: 37%
[4]
  remaining binding at 10 µM: 89%
AKT3
  remaining binding at 10 µM: 100%
AMPK-alpha1
  remaining binding at 10 µM: 91%
ASK1
  remaining binding at 10 µM: 87%
BLK
  remaining binding at 10 µM: 49%
BMPR1B
  remaining binding at 10 µM: 81%
BRAF (V600E)
  remaining binding at 10 µM: 86%
DCAMKL2
  remaining binding at 10 µM: 82%
DDR1
  remaining binding at 10 µM: 2.6%
EPHA8
  remaining binding at 10 µM: 59%
EPHB4
  remaining binding at 10 µM: 54%
ERBB4
  remaining binding at 10 µM: 64%
FLT3-autoinhibited
  remaining binding at 10 µM: 87%
GRK1
  remaining binding at 10 µM: 53%
GSK3B
  remaining binding at 10 µM: 86%
IKK-epsilon
  remaining binding at 10 µM: 74%
IRAK4
  remaining binding at 10 µM: 98%
KIT
  remaining binding at 10 µM: 32%
KIT (D816V)
  remaining binding at 10 µM: 71%
LTK
  remaining binding at 10 µM: 85%
NIM1
  remaining binding at 10 µM: 87%
p38-alpha
  remaining binding at 10 µM: 6%
PFCDPK1 P. falciparum
  remaining binding at 10 µM: 0.9%
PFPK5 P. falciparum
  remaining binding at 10 µM: 100%
PHKG1
  remaining binding at 10 µM: 97%
PIK3CA (E542K)
  remaining binding at 10 µM: 90%
PIM2
  remaining binding at 10 µM: 65%
PIP5K1C
  remaining binding at 10 µM: 67%
[5]
  remaining binding at 10 µM: 100%
SBK1
  remaining binding at 10 µM: 77%
SLK
  remaining binding at 10 µM: 100%
TAK1
  remaining binding at 10 µM: 56%
TEC
  remaining binding at 10 µM: 88%
TESK1
  remaining binding at 10 µM: 90%
TSSK1B
  remaining binding at 10 µM: 100%
VEGFR2
  remaining binding at 10 µM: 79%
WEE2
  remaining binding at 10 µM: 100%
YSK1
  remaining binding at 10 µM: 64%
